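Method: 48-hour compound exposure of cells in 96-well plates, five concentrations, linear interpolation of endpoints. Here, GI50 denotes the concentration required for 50% inhibition of growth. The concentration for full growth arrest is given as TGI.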
System: MDA-MB-468 breast
Test: DTP human tumour cell line panel, 48 h

| SMILES | GI50 | TGI |
| --- | --- | --- |
| Fc1ccc(-c2nn(-c3ccccc3)cc2-c2nc3ccccc3o2)cc1 | 0.249 µM | 0.877 µM |
| COc1ccccc1NC(=O)c1ccc(/C=C/C(=O)c2nccn2C)cc1 | 0.383 µM | 0.848 µM |
| O=C(O)CCCc1ccc(N(CCCl)CCCl)cc1 | 23.1 µM | 99.2 µM |
| COc1nc2c(cc1S(=O)(=O)c1ccccc1)CCc1c-2cnn1-c1ccccc1Cl | 3.7 µM | > 100 µM |
| CN=C1NC(=O)/C(=C/c2ccc3ncccc3c2)S1 | 3.26 µM | 21.6 µM |
| CCN1CCN(c2nc(NCCNc3ccnc4cc(Cl)ccc34)c3ccccc3n2)CC1 | 0.752 µM | 2.34 µM |
| N#Cc1c(O)c2c(c(O)c1C#N)C(=O)c1ccccc1C2=O | 1.63 µM | 6.17 µM |
| C[C@@H]1Cc2c([nH]c3ccccc23)[C@@H](c2c(F)cc(/C=C/C(=O)O)cc2F)N1CC(C)(C)F | 16.9 µM | 53.5 µM |
| CC1=C(CCCOC(=O)NCCCl)C2=C(C)C3(CC3)[C@@](C)(O)C(=O)C2=C1 | 1.83 µM | 5.08 µM |
| O=[n+]1c(CBr)c(CBr)n([O-])c2ccccc21 | 7.38 µM | 20.4 µM |
| ClCc1ccccc1CSc1ncnc2nc[nH]c12 | 48.9 µM | > 60 µM |
| CC[n+]1ccc2c(c1)C(=O)c1nccc3c1c-2nc1ccccc13 | 0.462 µM | 1.18 µM |
| COc1cccc(-c2nn(-c3ccccc3)cc2-c2ccnc(NCCCNS(=O)(=O)c3cccc(F)c3)c2)c1 | 3.49 µM | 30.4 µM |
| COC(=O)c1c2c(c(C)[n+]([O-])c1C)C(=O)C=CC2=O | 0.946 µM | 2.71 µM |
| N#Cc1nc(-c2ccc(F)cc2)oc1S(=O)(=O)N1CCOCC1 | 1.6 µM | 3.27 µM |
| CN1CCN(Cc2ccc(NC(=O)c3cncc(C#Cc4cnc(N)c5ccccc45)c3)cc2C(F)(F)F)CC1 | 0.4 µM | 0.918 µM |
| Cn1c(-c2nonc2N)nc2cnccc21 | > 25 µM | > 25 µM |
| Cc1c(Cl)cccc1Nc1ncccc1C(=O)O | 84.4 µM | > 100 µM |
| C#C[C@]1(O)CC[C@H]2[C@@H]3CC=C4c5sc(-c6cccc(O)c6)nc5CC[C@]4(C)[C@H]3CC[C@@]21C | 2.56 µM | 6.66 µM |
| NS(=O)(=O)c1ccc(-n2nc(-c3ccc(Br)cc3)ccc2=O)cc1 | > 10 µM | > 10 µM |
| COc1ccc(CNC(=O)COc2ccc(/C=N/Nc3nc4ccccc4s3)cc2)cc1 | 1.9 µM | 6.09 µM |
| CCOC(=O)c1cc(-c2ccc([N+](=O)[O-])cc2)n(-c2ccc(C(=O)O)c(O)c2)c1C | 2.8 µM | 10.7 µM |
| O=C(Cc1ccc(/C=C/C(=O)c2ncc[nH]2)cc1)Nc1ccc(Cl)cc1 | 1.68 µM | 6.2 µM |
| CC1=C2[C@@H](CC1)[C@]1(C)O[C@@](C(C)C)(C[C@H]1OC(=O)[C@H](C)O)[C@H]2OC(=O)/C=C/c1ccccc1 | 12.6 µM | 28.3 µM |
